Literature values in patent US20060257347A1, “Self-preservation system” (priority 2005, published 2006).
Values after ≈ are worked out from the molar mass of the structure shown.

Key:
Conditions in all cases: hinokitiol alone; known to be
[1] = tested on: Escherichia coli (ATCC No. 8739)
[2] = tested on: Staphylococcus aureus (ATCC No. 6538)
[3] = tested on: Candida albicans (ATCC No. 10231)
[4] = tested on: Aspergillus niger (ATCC No. 16404)
[5] = tested on: Pseudomonas aeruginosa (ATCC No. 9027)

**Q.** For `CC(C)c1cccc(=O)c(O)c1` [hinokitiol, Hinokitiol], which “MIC (Minimum Inhibitory Concentration) Escherichia coli” value [1] is on record?
**A.** 40.0 mg/mL (≈ 244 mM)

**Q.** What about the “MIC (Minimum Inhibitory Concentration) Staphylococcus aureus” value [2] of the same molecule?
**A.** 40.0 mg/mL (≈ 244 mM)

**Q.** And the “MIC (Minimum Inhibitory Concentration) Candida albicans” value [3]?
**A.** 12.5 mg/mL (≈ 76.1 mM)

**Q.** And the “MIC (Minimum Inhibitory Concentration) Aspergillus niger” value [4]?
**A.** 40.0 mg/mL (≈ 244 mM)

**Q.** What about the “MIC (Minimum Inhibitory Concentration) Pseudomonas aeruginosa” value [5] of the same molecule?
**A.** 50.0 mg/mL (≈ 304 mM)
